In patent publication US20160184434A1, “AGENT FOR PROMOTING IN VIVO ABSORPTION OF HYDROXYTYROSOL AND DERIVATIVES THEREOF AND USE OF SAME” (priority 2013, published 2016):

Columns and labels:
[1] = Blood hydroxytyrosol after oral administration with EGCG or EGC (Example 1, HPLC); type: in vivo, SD (IGS) male rats; settings: rats
Text: The present inventors analyzed the influence of the particular compound having a galloyl group, i.e., EGCG, on the absorption of hydroxytyrosol in the body. At the same time, the inventors also analyzed the influence of EGC, a compound having no galloyl group, on the absorption of hydroxytyrosol in the body. By comparing the results for EGCG with those for the control, we investigated whether the galloyl group is involved in the absorption of hydroxytyrosol in the body.
SD (IGS) male rats (5 weeks old) were purchased from Oriental Bioservice, Inc. and habituated to the test environment for one week, and then those rats which were well grown were put to use in the selected test. Those rats fasted overnight were divided into three groups each consisting of 4 or 5 animals. Group 1 (control) was given 5 mL/kg of distilled water and 50 mg/5 mL/kg of a commercial hydroxytyrosol solution in distilled water; Group 2 was given 100 mg/5 mL/kg of an EGC solution in distilled water and 50 mg/5 mL/kg of a hydroxytyrosol solution in distilled water; and Group 3 was given 150 mg/5 mL/kg of an EGCG solution in distilled water and 50 mg/5 mL/kg of a hydroxytyrosol solution in distilled water—all of the groups were orally administered using a sonde. Before and at 0.25, 0.5, 1, 3 and 6 hours after the start of treatment, blood was sampled from the tail vein using a heparin-coated blood collection tube and centrifuged (at 8000 rpm for 10 min) to obtain plasma samples. The obtained plasma samples were subjected to deconjugation and deproteinization treatments, and the resulting supernatants were concentrated under reduced pressure, redissolved in 20% acetonitrile, and passed through a filter. The resulting solutions were analyzed by HPLC to determine their peak areas. Thus, quantification of hydroxytyrosol was performed. The EGCG used in this example was a commercially available EGCG product (EGCG purity: 94%). The HPLC conditions are shown below.
Column: X-bridge C18 (3.5 μm, 2.1×150 mm, produced by Waters)
Mobile phase: A: 0.1% acetic acid solution in water, B: 0.1% acetic acid/90% acetonitrile solution in water

[2] = Blood hydroxytyrosol after oral administration with 500 mg/kg grape seed extract (Example 2, LC/MS/MS); type: in vivo, SD (IGS) male rats; settings: rats, hydroxytyrosol 30 mg/kg alone
Experimental: The present inventors investigated the influence of an OPC on the absorption of hydroxytyrosol in the body.
SD (IGS) male rats (9 weeks old) were purchased from Oriental Bioservice, Inc. and habituated to the test environment for one week, and then those rats which were well grown were put to use in the selected test. Those rats fasted overnight were divided into two groups each consisting of 5 or 6 animals. Group 1 (control) was given 30 mg/5 mL/kg of a hydroxytyrosol solution in distilled water; and Group 2 was given 30 mg/kg of hydroxytyrosol plus 5 mL/kg of a solution of 500 mg/kg grape seed extract in distilled water—both of the groups were orally administered using a sonde. Before and at 0.25, 0.5, 1, 2, 3 and 6 hours after the start of treatment, blood was sampled from the tail vein using a heparin-coated blood collection tube and centrifuged (at 8000 rpm for 10 min) to obtain plasma samples. The obtained plasma samples were subjected to deconjugation and deproteinization treatments, and the resulting supernatants were concentrated under reduced pressure, redissolved in 20% acetonitrile, and passed through a filter. The resulting solutions were analyzed by LC/MS/MS, and quantification of hydroxytyrosol was performed using the internal standard method. HPLC conditions
Internal standard (I.S.): 3-(4-hydroxyphenyl)-1-propanol […]

[3] = Blood hydroxytyrosol after oral administration with reduced doses of grape seed extract (Example 3); type: in vivo; settings: male, SD (IGS), rat, rats, hydroxytyrosol 30 mg/kg alone (control), plasma, read-out: AUC of hydroxytyrosol at 0 to 6 hours
Text: The present inventors investigated whether the same promoting effect on the absorption of hydroxytyrosol in the body as observed in Example 2 can be observed even if the dose of the grape seed extract is reduced.
SD (IGS) male rats (9.5 weeks old) were purchased from Oriental Bioservice, Inc. and habituated to the test environment for two weeks, and then those rats which were well grown were put to use in the selected test. Those rats fasted overnight were divided into three groups each consisting of 4 animals. Group 1 (control) was given 30 mg/5 mL/kg of a hydroxytyrosol solution in distilled water; Group 2 was given 30 mg/kg of hydroxytyrosol plus 5 mL/kg of a solution of 150 mg/kg grape seed extract in distilled water; and Group 3 was given 30 mg/kg of hydroxytyrosol plus 5 mL/kg of a solution of 250 mg/kg grape seed extract in distilled water—all of the groups were orally administered using a sonde. Before and at 0.25, 0.5, 1, 2, 3 and 6 hours after the start of treatment, blood was sampled from the tail vein using a heparin-coated blood collection tube and centrifuged (at 8000 rpm for 10 min) to obtain plasma samples. […] The resulting solutions were analyzed by LC/MS/MS, and quantification of hydroxytyrosol was performed using the internal standard method. […]

[4] = Blood hydroxytyrosol after oral administration with 150 to 750 mg/kg grape seed extract (Example 4); type: in vivo; settings: male, SD (IGS), rat, rats, hydroxytyrosol 30 mg/kg alone (control), plasma, read-out: AUC of hydroxytyrosol at 0 to 6 hours
Experimental: The present inventors investigated whether the same promoting effect on the absorption of hydroxytyrosol in the body can be observed even if the dose of the grape seed extract is further increased in the same test system as used for the investigations in Examples 2 and 3. […] The method for calculating this purity will be presented later in Example 5. Also, the amount of a galloyl group contained in the grape seed extract was measured as the amount of a galloyl ester and determined to be about 2.2% by weight. The method for calculating this amount will be presented later in Example 6.
SD (IGS) male rats (8 weeks old) were purchased from Oriental Bioservice, Inc. and habituated to the test environment for one week, and then those rats which were well grown were put to use in the selected test. Those rats fasted overnight were divided into five groups each consisting of 4 animals (however, Group 5 consists of 2 animals). […]
The obtained plasma samples were subjected to deconjugation and deproteinization treatments, and the resulting supernatants were concentrated under reduced pressure, redissolved in 20% acetonitrile, and passed through a filter. The resulting solutions were analyzed by LC/MS/MS, and quantification of hydroxytyrosol was performed using the internal standard method. […]

[5] = hydroxytyrosol 50 mg/kg concurrently with EGCG 150 mg/kg

SMILES | blood hydroxytyrosol concentration after its peak (absorption profile) [1, 5] | time at which blood hydroxytyrosol concentration reached its peak [1, 5] [min] | AUC ([1]; male, SD (IGS), rat, hydroxytyrosol 50 mg/kg alone (control), plasma, read-out: AUC of hydroxytyrosol (amount absorbed in the body)) [ng·h/mL] | time at which blood hydroxytyrosol concentration reached its peak ([1]; hydroxytyrosol 50 mg/kg alone) [min] | blood hydroxytyrosol at 2 or 3 hours after administration [2] | AUC [3] [ng·h/mL] | AUC [4] [ng·h/mL]
O=C(O[C@@H]1Cc2c(O)cc(O)cc2O[C@@H]1c1cc(O)c(O)c(O)c1)c1cc(O)c(O)c(O)c1 [EGCG, epigallocatechin gallate] | kept high even thereafter | 30 |  |  |  |  | 
OCCc1ccc(O)c(O)c1 [hydroxytyrosol, 3,4-dihydroxyphenylethanol] |  |  | 12000 | 18 | little or no hydroxytyrosol was detected | 8640 | 7360
